Results: patent EP1369114A1, “Use of tryptophan metabolites as pharmaceutical agents” (Terness, Peter, Priv. Doz. Dr., priority 2002, dated 2003)

Experiments:
Format in all cases: cell-based, human
[1] = test system: CD3-stimulated T cells; assay: CD3 stimulation of T cells: metabolite titration curves, 3[H]-thymidin incorporation; conditions: anti-CD3 antibody, 3 days; for IC50: Homo sapiens, T-cell, 72 h, single substance, read-out: I50 of proliferation of CD3-stimulated T cells
Excerpt: • (a) Allogeneic T-cell response. DCs were infected with recombinant IDO-adeno-GFP (DC-IDO-GFP), IDO-adeno (DC-IDO) or with control adenoviruses (DC-adeno) at a MOI (multiplicity of infection) up to 500 for 2 days. Lymphocytes (PBMCs) were separated from peripheral blood of healthy donors by density gradient centrifugation and typed for HLA antigens. Only HLA-DR-different responder lymphocytes were used for DC-induced stimulation. Native DCs only, lymphocytes only, native DCs + allogeneic lymphocytes, DC-IDO-GFP + allogeneic lymphoytes, DC-IDO + allogeneic lymphoytes, DC-adeno + allogeneic lymphocytes (each time 10^5 DC + 10^5 lymphocytes in 0.2ml medium) were cultured in RPMI 1640 medium (Gibco BRL Life Technologies GmbH, Eggenstein, Germany) with 10% fetal calf serum (FCS) (final tryptophan concentration 5.25 mg/l = 25.69 uM) and Penicillin G/Streptomycin. […] In order to verify whether IDO expression or adenovirus infection harm the DCs, 10^5 cells were infected with IDO-adeno-GFP, IDO-adenovirus, or adenovirus only at a stepwise decreasing MOI (500, 250, 125, ........ 3.9) and cell viability was measured in FACS following double staining with 7-AAD and anti-CD83 antibody-PE. The percentage of dead cells never exceeded 30% for any MOI following IDO-adeno-GFP- or IDO-adeno-infection and 40% following adenovirus(control)-infection. Moreover, these values were not higher than those of native DCs cultured for the same period of time. The experiment was repeated using ethidium bromide or trypan blue staining with virtually the same result. […] Peripheral blood lymphocytes were cultured (10^5 cells/well) in RPMI 1640 (10% FCS) with anti CD3 monoclonal antibody (Ortho Diagnostic Systems Inc., Raritan, NJ) (final dilution 1:200). […] Kynurenine, 3-hydroxykynurenine, anthranilic acid, 3-hydroxyanthranilic acid, and quinolinic acid (Sigma-Aldrich Chemie GmbH, Taufkirchen, Germany)(for all substances purity>98%) were dissolved in RPMI 1640 and added to cell cultures at various concentrations. In an other experiment, to determine whether the metabolites have an additive effect, equal concentrations of the compounds were mixed and added to the cultures. […] Positive controls consisted of CD3-stimulated cells without metabolites and negative controls of unstimulated cells. • (d) Restimulation of suppressed T cells. Lymphocytes (10^5 cells/well) were cultured in RPMI 1640 (10% FCS) with anti-CD3 monoclonal antibody (final dilution 1:200) and kynurenine (dilution series). […] Controls consisted of cells prestimulated with anti-CD3 but not pretreated with kynurenine. In an other restimulation experiment lymphocytes were stimulated with allogeneic DCs as described, in the presence (47-1500µM) or absence of kynurenine. Control cultures contained DCs or lymphocytes only. After 5 days the cells were extensively washed, and restimulated with an identical number of DCs derived from the same donor or from third party donors. […] In order to define the concentration of tryptophan which reduces T- lymphocyte proliferation in our test system, 10^5 lymphocytes were incubated in tryptophan-free RPMI 1640 medium (Gibco BRL Life Technologies) with or without 10% FCS, stimulated with anti-CD3 monoclonal antibody, and various amounts (0-38µM) of tryptophan were added. Unimpaired proliferation was observed down to 0.30µM (medium with FCS) and 1 .20µM (without FCS). Complete inhibition was not obtained at any concentration (positive control 100% proliferation; maximal suppression in medium with FCS: approx. 66% and without FCS: approx. 33%). All cell cultures were done in triplicate.
All tests were carried out in triplicate and results are given as mean +standard deviation. […] Thereafter, the concentration of substance giving 50% proliferation was calculated by regression.

[2] = test system: T cells; assay: Detection of cell death: 7-AAD staining of anti-CD3 stimulated lymphocytes, FACScan; conditions: anti-CD3, 3 days; 1501 µM kynurenine, 349µM 3-hydroxykynurenine, 510µM 3-hydroxyanthranilic acid, mixture 64 µM of each compound
Description: Lymphocytes were stimulated in culture with anti-CD3 monoclonal antibody (s. above) in the presence or absence (control) of kynurenine (1501µM), 3-hydroxyanthranilic acid (510µM), 3-hydroxykynurenine (348µM), or metabolite mixture (64µM kynurenine + 64µM 3-hydroxykynurenine + 64µM anthranilic acid + 64µM 3-hydroxyanthranilic acid + […] quinolinic acid). After 3 days the cells were washed and resuspended in PBS (10^6/ml). Thereafter, the cells (100µ1 suspension) were labeled with anti-CD3-FITC antibody (3 µl), stained with 7-AAD (5µl) for 15 min, and the percentage of 7-AAD-positive (dead) T cells was determined in a FACScan. In an other experiment T cells, B cells, NK-cells, or DCs were separated from PBMCs by magnetic beads or generated as described, and cultured (5x10^5 cells/ml) with a mixture of kynurenine metabolites (kynurenine + 3-hydroxykynurenine + anthranilic acid + 3-hydroxyanthranilic acid + quinolinic acid)(8, 16, or 32µM respectively for each compound). In one setting T cells were activated with anti-CD3 antibody. Cell death was measured daily for 5 days by 7-AAD staining and expressed in percentage of dead cells.

[3] = test system: T cells stimulated by allogeneic DCs; assay: Allogeneic T-cell response: lymphocyte proliferation induced by allogeneic dendritic cells, 3[H]-thymidin incorporation; conditions: 6 days
Excerpt: DCs were generated from CD14-positive blood monocytes as previously described ("Schuler G. and N. Romani", 1997, Adv. Exp. Med. Biol. 417:7-13). Briefly, peripheral blood mononuclear cells of an HLA-typed healthy donor were separated by density gradient centrifugation and CD14-positive monocytes were isolated by adherence to culture dishes. Non-adherent cells were discarded. After culture of monocytes in the presence of human rGM-CSF (666 Units/ml) and rIL-4 (1000 Units/ml) for 7 days, rTNF-α (10 ng/ml) was added for an additional 2 days to induce maturation of DC. Characterization of DC phenotype was performed by flow cytometry using the following mouse monoclonal antibodies: anti-CD 14-FITC, anti-HLA-DR-FITC, anti-CD 1a-PE, anti-CD86-PE, and anti-CD83-PE (BD Biosciences Heidelberg, Germany). DCs were kept in liquid nitrogen until use.
• (a) Allogeneic T-cell response. DCs were infected with recombinant IDO-adeno-GFP (DC-IDO-GFP), IDO-adeno (DC-IDO) or with control adenoviruses (DC-adeno) at a MOI (multiplicity of infection) up to 500 for 2 days. […] After 5 days, ^3[H]-thymidin was added for 12hrs and the number of counts (counts per minute = cpm) determined in a (3-counter (Inotech Biosystems, Lansing, MI). In order to verify whether IDO expression or adenovirus infection harm the DCs, 10^5 cells were infected with IDO-adeno-GFP, IDO-adenovirus, or adenovirus only at a stepwise decreasing MOI (500, 250, 125, ........ 3.9) and cell viability was measured in FACS following double staining with 7-AAD and anti-CD83 antibody-PE. The percentage of dead cells never exceeded 30% for any MOI following IDO-adeno-GFP- or IDO-adeno-infection and 40% following adenovirus(control)-infection. […] After 2 days, cell proliferation was assessed by measuring ^3[H]-thymidin incorporation (cpm) as described. • (c) Tryptophan metabolite titration curves. […] After 2 days, ^3[H] thymidin was added and the number of counts recorded. […] After another 2 days, ^3[H] thymidin was added and cpm determined. […]

[4] = test system: T- lymphocyte proliferation; assay: Tryptophan titration curve: proliferation of anti-CD3 stimulated lymphocytes in tryptophan-free medium; conditions: for maximal suppression: positive control 100% proliferation
Excerpt: • (a) Allogeneic T-cell response. DCs were infected with recombinant IDO-adeno-GFP (DC-IDO-GFP), IDO-adeno (DC-IDO) or with control adenoviruses (DC-adeno) at a MOI (multiplicity of infection) up to 500 for 2 days. Lymphocytes (PBMCs) were separated from peripheral blood of healthy donors by density gradient centrifugation and typed for HLA antigens. Only HLA-DR-different responder lymphocytes were used for DC-induced stimulation. Native DCs only, lymphocytes only, native DCs + allogeneic lymphocytes, DC-IDO-GFP + allogeneic lymphoytes, DC-IDO + allogeneic lymphoytes, DC-adeno + allogeneic lymphocytes (each time 10^5 DC + 10^5 lymphocytes in 0.2ml medium) were cultured in RPMI 1640 medium (Gibco BRL Life Technologies GmbH, Eggenstein, Germany) with 10% fetal calf serum (FCS) (final tryptophan concentration 5.25 mg/l = 25.69 uM) and Penicillin G/Streptomycin. After 5 days, ^3[H]-thymidin was added for 12hrs and the number of counts (counts per minute = cpm) determined in a (3-counter (Inotech Biosystems, Lansing, MI). In order to verify whether IDO expression or adenovirus infection harm the DCs, 10^5 cells were infected with IDO-adeno-GFP, IDO-adenovirus, or adenovirus only at a stepwise decreasing MOI (500, 250, 125, ........ 3.9) and cell viability was measured in FACS following double staining with 7-AAD and anti-CD83 antibody-PE. The percentage of dead cells never exceeded 30% for any MOI following IDO-adeno-GFP- or IDO-adeno-infection and 40% following adenovirus(control)-infection. Moreover, these values were not higher than those of native DCs cultured for the same period of time. […] After 2 days, cell proliferation was assessed by measuring ^3[H]-thymidin incorporation (cpm) as described. • (c) Tryptophan metabolite titration curves. […] After 2 days, ^3[H] thymidin was added and the number of counts recorded. […] After another 2 days, ^3[H] thymidin was added and cpm determined. […] 3[H] thymidin was added to all cultures and the number of counts (cpm) determined. • (e) Tryptophan titration curve. […]

Nc1c(O)cccc1C(=O)O [3-hydroxyanthranilic acid]
IC50 [1]: 96 µM
suppression of T cell response (in words) [1]: strongly suppress T cells
dead (7-AAD-positive) T cells (in words) [2]: virtually all cells died

Nc1c(O)cccc1C(=O)CC(N)C(=O)O (centres unmarked) [3-hydroxykynurenine]
IC50 [1]: 187 µM
suppression of T cell response (in words) [1]: strongly suppress T cells
dead (7-AAD-positive) T cells (in words) [2]: virtually all cells died

Nc1ccccc1C(=O)C[C@@H](N)C(=O)O [D-kynurenine]
suppression of T cell response (in words) [1]: The same effect was noted
inhibition of proliferation of T cells stimulated by allogeneic DCs (in words) [3]: The same effect was noted

NC(CC(=O)c1ccccc1NC=O)C(=O)O (centres unmarked) [N-formylkynurenine]
suppression of T cell response (in words) [1]: Suppression of T-cell response can also be achieved

Nc1ccccc1C(=O)O [anthranilic acid]
suppression of T cell response (in words) [1]: suppressive but at higher concentrations

O=C(O)c1cccnc1C(=O)O [quinolinic acid]
suppression of T cell response (in words) [1]: suppressive but at higher concentrations

N[C@@H](Cc1c[nH]c2ccccc12)C(=O)O [tryptophan]
lowest tryptophan concentration with unimpaired proliferation ([4]; medium with FCS): 0.30 µM
maximal suppression ([4]; medium with FCS): approx. 66%
maximal suppression ([4]; medium without FCS): approx. 33%
